{"source": "patent US20240082242A1", "about": "“COMBINATION THERAPIES” (IMBRIA PHARMACEUTICALS, INC., priority 2021, published 2024)", "key": {"[1]": {"tested_on": "TAC-induced heart failure in mice", "test": "Transverse aortic constriction (TAC) model of heart failure", "type": "in vivo, mouse", "method": "Studies were conducted to evaluate and compare the efficacy of the reference compound TMZ with CV-8814 and CV-1018972 on ventricular remodeling, preservation of heart function and prevention of fibrosis in a transverse aortic constriction (TAC) model of heart failure in mice.\nFIG. 30 is a schematic of the transverse aortic constriction (TAC) protocol used to test the ability of various compounds to protect the heart against heart failure. The aortic arc was exposed via midline incision in the chest cavity of anesthetized mice. A 27-gauge needle was tied against the transverse aorta and then promptly removed to create a ligature constriction. In vivo cardiac function was assessed by transthoracic echocardiography performed at 24-hour, 3-week, and 6-week time-points after TAC. Ventricular remodeling was determined by evaluation of heart weights (HW) and heart weight to body weight ratios (HW/BW). At study termination, hearts were excised, fixed, sectioned at 6 μm and stained with Masson's trichome. The area of fibrosis in myocardial tissue was measured by computerized planimetry on five random fields per heart. A total of 65 to 75 fields were analyzed per treatment group and differences were analyzed by Student's t-test.\nThree separate studies were performed to evaluate the efficacy of single agents and combinations with metabolic enhancers in the TAC model of heart failure. In the first study, mice were treated with either trimetazidine alone or trimetazidine+nicotinamide+succinate. In the second study, mice were treated with CV-8814 alone or trimetazidine+nicotinic acid+succinate. In the third study, mice were treated with […], CV-8814, or CV-8972. Overall, the activities of trimetazidine, CV-8814, and CV-8972 on most study endpoints were in good agreement across the three studies. In the third study, the three compounds were analyzed at equivalent mg/kg/day doses on a formula weight basis: 6 mg/kg/d for trimetazidine, 7.5 mg/kg/day for CV-8814; and 10 mg/kg/day for CV-8972. Therefore, the results from the third study are summarized here."}, "[2]": {"tested_on": "cardiac glucose metabolism", "test": "PET imaging of 18F-FDG uptake after CV-8972 injection", "type": "in vivo, rat", "description": "(§1) The effects of CV-8972, a partial fatty acid oxidation inhibitor, on glucose and fatty acid metabolism were investigated using non-invasive positron emission tomography (PET) imaging. The PET radiotracer ^18F fluorodeoxyglucose (FDG), a radiolabeled glucose analog, was used to evaluate cardiac glucose metabolism, and the PET radiotracer ^18F fluoro-6-thia-heptadecanoic acid (FTHA), a radiolabeled long-chain fatty acid (LCFA) analog, was used to evaluate fatty acid beta oxidation. Both radiotracers are “entrapped” in cells in a way that is proportional to either glucose or fatty acid metabolism. For example, high ^18F-FDG or ^18F-FTHA signal indicates high glucose or fatty acid metabolism, respectively, while, conversely, diminished uptake indicates lower metabolism.\n(§2) PET imaging with ^18F-FDG and ^18F-FTHA was performed in healthy rats. PET images were acquired dynamically for 120 minutes after tracer injection to capture dynamic changes in cardiac glucose and fatty acid metabolism. For each tracer, animals were imaged twice, once after injection of vehicle (phosphate buffered saline, PBS) or CV-8972 (80 mg/3 mL/kg), subcutaneously injected to the back of animals 15 min prior to PET imaging.\n(§3) FIG. 1 is a schematic of the positron emission tomography (PET) imaging study design used to monitor the uptake of ^18F-fluorodeoxyglucose (^18F-FDG) and ^18F-14(R,S)-(18)F-fluoro-6-thia-heptadecanoic acid (^18F-FTHA) into heart tissue of rats in response to treatment with CV-8972. To monitor uptake of ^18F-FDG, rats were fasted for 16 hours prior to day 1. On day 1, rats were given phosphate-buffered saline (PBS) at time 0, and 15 minutes later ^18F-FDG was administered and traced in vivo by PET for two hours following administration. Rats were again fasted for 16 hours prior to day 3. On day 3, rats were given CV-8972 at time 0, and 15 minutes later ^18F-FDG was administered and traced in vivo by PET for two hours following administration. Immediately following the second PET scan, the animals were sacrificed, and the levels of gamma radioactivity in the blood, heart, and skeletal muscle were measured. To monitor uptake of ^18F-FTHA, rats were allowed to eat prior to day 1. On day 1, rats were given PBS at time 0, and 15 minutes later ^18F-FTHA was administered and traced in vivo by PET for two hours following administration. Rats were allowed to eat prior to day 3. On day 3, rats were given CV-8972 at time 0, and 15 minutes later ^18F-FTHA was administered and traced in vivo by PET for two hours following administration. Immediately following the second PET scan, the animals were sacrificed, and the levels of gamma radioactivity in the blood, heart, and skeletal muscle were measured.\n(§4) Dynamic positron emission tomography/computed tomography (PET/CT) imaging was obtained with a Mediso nanoScan 122S PET/CT system. Cardiac glucose and fatty acid metabolisms were visualized by tracking ^18F-FDG (NCM-USA LLC, NY, USA) and ^18F-FTHA (Department of Radiology, New York University School of Medicine, NY, USA), respectively. Before the ^18F-FDG scan, rats were fasted overnight for at least 16 hours to minimize the physiological uptake of the radiotracer to cardiomyocyte. Either vehicle (phosphate buffered saline) or CV-8972 (80 mg/3 mL/kg) was subcutaneously injected to the back of animals 15 min prior to PET imaging. Animals were then placed on the scanner, and high-resolution CT images was obtained. Following, dynamic PET was started at the same time as the injection of ^18F-FDG (37 MBq, 1 mCi/0.5 mL/body) via tail vein and recorded for 120 min. Each animal underwent 2 scan sessions, one after vehicle injection and another after CV-8972 injection, with 2 or more days interval (average 2.9 days, 2-6 days). The order of the 2 imaging sessions was randomized among rats. For ^18F-FTHA (37 MBq, 1 mCi/0.5 mL/body), animals received 2 scan sessions under same conditions as those for ^18F-FDG except for fed condition. […]"}, "[3]": {"tested_on": "radioactivity in the heart, skeletal muscle, and blood", "test": "Ex vivo quantification of radiotracer uptake by gamma counting", "type": "in vivo, rat", "method": "Shortly after the final PET/CT scan, blood was taken from abdominal vein under anesthesia with isoflurane (3-5%), and then animals were euthanized by exsanguination. After thorough perfusion with PBS, the heart and skeletal muscle (right brachium) were harvested. Radioactivity in the heart, muscle, and blood was determined with a Wizard2 2480 automatic gamma counter (Perkin Elmer, Waltham, MA) and % ID/g was calculated for each organ.\nThe radioactivity in the heart, skeletal muscle, and blood was also determined with a gamma counter shortly after PET/CT imaging for further ex vivo validation."}, "[4]": {"tested_on": "fatty acid beta oxidation", "test": "PET imaging of 18F-FTHA uptake after CV-8972 injection", "type": "in vivo, rat", "description": "as §1, §2, §3, §4"}, "[5]": {"conditions": "mouse, iv, 10 mg/kg"}, "[6]": {"conditions": "static analysis at 30 minutes, CV-8972 vs saline"}, "[7]": {"conditions": "two-compartment model, CV-8972 80 mg/kg s.c. vs PBS"}, "[8]": {"conditions": "gamma counter shortly after PET/CT, CV-8972 80 mg/kg s.c., mean±SD"}, "[9]": {"conditions": "gamma counting, CV-8972 vs control"}, "[10]": {"conditions": "CV-8972 80 mg/kg s.c. vs PBS, fed rats"}}, "data": [{"smiles": "COc1ccc(CN2CCN(CCOC(=O)c3cccnc3)CC2)c(OC)c1OC", "note": "[CV-8972, 2-[4-[(2,3,4-trimethoxyphenyl)methyl]piperazin-1-yl]ethyl pyridine-3-carboxylate]", "values": [{"measurement": "left ventricular fractional shortening (FS) at Week 3", "setting": "[1]; CV-8972 10 mg/kg/day, control 37%±3%", "result": "47%±3%"}, {"measurement": "left ventricular fractional shortening (FS) at Week 6", "setting": "[1]; CV-8972 10, CV-8814 7.5 mg/kg/day, control 34%±3%", "result": "46%±3%"}, {"measurement": "fibrosis of myocardial tissue after six weeks", "setting": "[1]; Masson's trichome, percentage of fibrotic heart tissue, control 10.7±1", "result": "6.6±0.6", "unit": "%"}, {"measurement": "isovolumic relaxation time (IVRT) at Week 6", "setting": "[1]; control 35±1", "result": "31 ± 2", "unit": "ms"}, {"measurement": "isovolumic relaxation time (IVRT) at the three-week assessment", "setting": "[1]; control 36±1", "result": "32 ± 1", "unit": "ms"}, {"measurement": "left ventricular ejection fraction (EF) throughout the six-week study", "setting": "[1]; third study, minipump", "result": "preserved"}, {"measurement": "heart weight to body weight ratio", "setting": "[1]; third study, CV-8972 10 mg/kg/day, control 9.1±0.5", "result": "7.4 ± 0.3", "unit": "mg/g"}, {"measurement": "left ventricular mass", "setting": "[1]; third study, CV-8972 10 mg/kg/day, control 195±12", "result": "156 ± 10", "unit": "mg"}, {"measurement": "heart weight", "setting": "[1]; third study, subcutaneous osmotic minipump, CV-8972 10 mg/kg/day, control 270±14", "result": "225 ± 11", "unit": "mg"}, {"measurement": "average SUV of 18F-FDG in the heart at 120 min", "setting": "[2]; CV-8972 80 mg/3 mL/kg s.c. 15 min before PET, fasted healthy rats, mean±SD", "result": "12.56±7.82"}, {"measurement": "18F-FDG signal in the blood, single dynamic frames", "setting": "[2]; CV-8972 80 mg/kg s.c. vs PBS", "result": "did not clearly affect"}, {"measurement": "18F-FDG signal in the skeletal muscle and blood, last 30 minutes (90-120 minutes)", "setting": "[2]; CV-8972 80 mg/kg s.c. vs PBS", "result": "slightly lower signal"}, {"measurement": "18F-FDG uptake in skeletal muscle, single dynamic frames", "setting": "[2]; CV-8972 80 mg/kg s.c. vs PBS", "result": "slightly lower"}, {"measurement": "18F-FDG uptake in the myocardium, last 30 minutes of PET acquisition (90-120 minutes)", "setting": "[2]; CV-8972 80 mg/kg s.c. vs PBS", "result": "significantly higher"}, {"measurement": "fold increase of heart 18F-FDG SUV at 120 min over control group", "setting": "[2]; CV-8972 80 mg/kg s.c., vs PBS control 0.89±0.62", "result": "approximately 14 fold"}, {"measurement": "change in 18F-FDG SUV in skeletal muscle, static analysis", "setting": "[2]; [6]", "result": "minimal change"}, {"measurement": "fold increase in 18F-FDG SUV in rat heart tissue, static analysis", "setting": "[2]; [6]", "result": 12, "unit": "fold"}, {"measurement": "18F-FDG myocardial uptake by kinetic modeling", "setting": "[2]; [7]", "result": "significantly higher myocardial uptake"}, {"measurement": "18F-FDG skeletal muscle uptake by kinetic modeling", "setting": "[2]; [7]", "result": "lower"}, {"measurement": "mean radioactivity of the heart, 18F-FDG", "setting": "[3]; [8]", "result": "4.25±1.03", "unit": "% ID/g"}, {"measurement": "mean radioactivity of the heart, 18F-FTHA", "setting": "[3]; [8]", "result": "1.98±0.53", "unit": "% ID/g"}, {"measurement": "radioactivity of skeletal muscle and blood vs control", "setting": "[3]; gamma counting, 18F-FDG and 18F-FTHA", "result": "did not show clear differences"}, {"measurement": "fold of heart radioactivity over control, 18F-FDG", "setting": "[3]; [9]", "result": 5.6, "unit": "fold"}, {"measurement": "fold of heart radioactivity over control, 18F-FTHA", "setting": "[3]; [9]", "result": 3.6, "unit": "fold"}, {"measurement": "18F-FTHA blood signal, last 30 minutes (90-120 minutes)", "setting": "[4]; CV-8972 80 mg/kg s.c. vs PBS", "result": "unaffected"}, {"measurement": "18F-FTHA myocardial signal, last 30 minutes (90-120 minutes)", "setting": "[4]; CV-8972 80 mg/kg s.c. vs PBS", "result": "slightly higher without reaching statistical significance"}, {"measurement": "18F-FTHA signal in the blood, single dynamic frames", "setting": "[4]; [10]", "result": "did not clearly affect"}, {"measurement": "18F-FTHA uptake in the heart, single dynamic frames", "setting": "[4]; [10]", "result": "no statistically significant changes"}, {"measurement": "18F-FTHA uptake in the skeletal muscle, single dynamic frames", "setting": "[4]; [10]", "result": "slightly higher uptake"}, {"measurement": "18F-FTHA signal in the skeletal muscle, last 30 minutes (90-120 minutes)", "setting": "[4]; CV-8972 80 mg/kg s.c. vs PBS, reached statistical significance", "result": "slightly higher signal"}, {"measurement": "initial fold increase of 18F-FTHA PET signal in heart after CV-8972 administration", "setting": "[4]; from 18F-FTHA circulating in the blood compartment, followed by washout over 120 min", "result": "~2", "unit": "fold"}, {"measurement": "18F-FTHA uptake into the myocardium and skeletal muscle by kinetic modeling", "setting": "[4]; three-compartment model, CV-8972 80 mg/kg s.c. vs PBS", "result": "significantly higher uptake"}, {"measurement": "conversion of CV-8972 in vivo", "setting": "[5]", "result": "rapidly converted to CV-8814"}]}]}
